Laboratory results reported in patent publication US20250296953A1, “3,4-THIAZOLO-STEROIDS AND METHODS OF MAKING AND USING THE SAME” (Arkansas State University - Jonesboro, priority 2018, published 2025).
Read-outs that look alike come from different tables or passages of the source.

Assays:
[1] = test system: 60 different human tumor cell lines; assay: cells
NCI-H522 (NSCLC) = assay: NCI 60 one dose screen; assay type: cell-based, human; settings: Non-small Cell Lung Cancer
RPMI-8226 = assay: NCI 60 five dose screen; settings: for 50% growth inhibition (GI50): leukemia cell line RPMI-8226
glioblastoma (SF-295) = assay: NCI 60 five dose screen
[2] = RPMI-8226 (Leukemia), five dose
[3] = read-out: LC50, RPMI-8226 (Leukemia), five dose
[4] = read-out: LC50, SF-295 (CNS Cancer), five dose

C[C@]12CC[C@H]3[C@@H](CC=C4c5sc(-c6ccc(O)cc6)nc5CC[C@@]43C)[C@@H]1CC[C@@H]2O [III.5, (1S,2R,13R,14S,17S,18S)-7-(4-hydroxyphenyl)-2,18-dimethyl-8-thia-6-azapentacyclo[11.7.0.02,10.05,9.014,18]icosa-5(9),6,10-trien-17-ol]
GI50 ([1]; 786-0): 0.423 µM
CC50 ([1]; 786-0, read-out: LC50): 21.2 µM
GI50 ([1]; A498): 3.51 µM
CC50 ([1]; A498, read-out: LC50): > 100 µM
GI50 ([1]; A549): 5.95 µM
CC50 ([1]; A549, read-out: LC50): > 100 µM
GI50 ([1]; ACHN): 7.55 µM
CC50 ([1]; ACHN, read-out: LC50): > 100 µM
GI50 ([1]; BT-549): 1.14 µM
CC50 ([1]; BT-549, read-out: LC50): > 100 µM
GI50 ([1]; CAKI-1): 4.12 µM
CC50 ([1]; CAKI-1, read-out: LC50): > 100 µM
GI50 ([1]; CCRF-CEM): 2.05 µM
CC50 ([1]; CCRF-CEM, read-out: LC50): > 100 µM
GI50 ([1]; COLO 205): 9.14 µM
CC50 ([1]; COLO 205, read-out: LC50): > 100 µM
GI50 ([1]; DU-145): 9.54 µM
CC50 ([1]; DU-145, read-out: LC50): > 100 µM
GI50 ([1]; EKVX): 7.29 µM
CC50 ([1]; EKVX, read-out: LC50): > 100 µM
GI50 ([1]; HCC 2998): 31.9 µM
CC50 ([1]; HCC 2998, read-out: LC50): > 100 µM
GI50 ([1]; HCT-15): 2.43 µM
CC50 ([1]; HCT-15, read-out: LC50): > 100 µM
GI50 ([1]; HCT-116): 2.37 µM
CC50 ([1]; HCT-116, read-out: LC50): > 100 µM
GI50 ([1]; HL-60): 4.08 µM
CC50 ([1]; HL-60, read-out: LC50): > 100 µM
GI50 ([1]; HOP-62): 5.25 µM
CC50 ([1]; HOP-62, read-out: LC50): > 100 µM
GI50 ([1]; HT-29): 3.13 µM
CC50 ([1]; HT-29, read-out: LC50): > 100 µM
GI50 ([1]; Hs-578T): 1.59 µM
CC50 ([1]; Hs-578T, read-out: LC50): > 100 µM
GI50 ([1]; IGROV-1): 11.1 µM
CC50 ([1]; IGROV-1, read-out: LC50): > 100 µM
GI50 ([1]; K562): 3.48 µM
CC50 ([1]; K562, read-out: LC50): > 100 µM
GI50 ([1]; KM12): 7.24 µM
CC50 ([1]; KM12, read-out: LC50): > 100 µM
GI50 ([1]; LOX IMVI): 2.67 µM
CC50 ([1]; LOX IMVI, read-out: LC50): > 100 µM
GI50 ([1]; M14): 2.86 µM
CC50 ([1]; M14, read-out: LC50): > 100 µM
GI50 ([1]; MCF7): 3.34 µM
CC50 ([1]; MCF7, read-out: LC50): > 100 µM
GI50 ([1]; MDA-MB-231): 6.98 µM
CC50 ([1]; MDA-MB-231, read-out: LC50): > 100 µM
GI50 ([1]; MDA-MB-435): 16.4 µM
CC50 ([1]; MDA-MB-435, read-out: LC50): > 100 µM
GI50 ([1]; MDA-MB-468): 5.13 µM
CC50 ([1]; MDA-MB-468, read-out: LC50): > 100 µM
GI50 ([1]; MOLT-4): 1.93 µM
CC50 ([1]; MOLT-4, read-out: LC50): > 100 µM
GI50 ([1]; Malme-3M): 3.76 µM
CC50 ([1]; Malme-3M, read-out: LC50): > 100 µM
GI50 ([1]; NCI-H23): 14 µM
CC50 ([1]; NCI-H23, read-out: LC50): > 100 µM
GI50 ([1]; NCI-H226): 27.4 µM
CC50 ([1]; NCI-H226, read-out: LC50): > 100 µM
GI50 ([1]; NCI-H322M): 31.1 µM
CC50 ([1]; NCI-H322M, read-out: LC50): > 100 µM
GI50 ([1]; NCI-H460): 4.94 µM
CC50 ([1]; NCI-H460, read-out: LC50): > 100 µM
GI50 ([1]; NCI-H522): 22.6 µM
CC50 ([1]; NCI-H522, read-out: LC50): > 100 µM
GI50 ([1]; NCI/ADR-RES): 6.77 µM
CC50 ([1]; NCI/ADR-RES, read-out: LC50): > 100 µM
GI50 ([1]; OVCAR-3): 8.67 µM
CC50 ([1]; OVCAR-3, read-out: LC50): > 100 µM
GI50 ([1]; OVCAR-4): 7.24 µM
CC50 ([1]; OVCAR-4, read-out: LC50): > 100 µM
GI50 ([1]; OVCAR-5): 13.3 µM
CC50 ([1]; OVCAR-5, read-out: LC50): > 100 µM
GI50 ([1]; OVCAR-8): 40.9 µM
CC50 ([1]; OVCAR-8, read-out: LC50): > 100 µM
GI50 ([1]; RXF 393): 0.377 µM
CC50 ([1]; RXF 393, read-out: LC50): 8.58 µM
GI50 ([1]; SF-268): 5.32 µM
CC50 ([1]; SF-268, read-out: LC50): > 100 µM
GI50 ([1]; SK-MEL-2): 4.42 µM
CC50 ([1]; SK-MEL-2, read-out: LC50): > 100 µM
GI50 ([1]; SK-MEL-5): 3.15 µM
CC50 ([1]; SK-MEL-5, read-out: LC50): 48.5 µM
GI50 ([1]; SK-MEL-28): 3.05 µM
CC50 ([1]; SK-MEL-28, read-out: LC50): > 100 µM
GI50 ([1]; SK-OV-3): 19 µM
CC50 ([1]; SK-OV-3, read-out: LC50): > 100 µM
CC50 ([1]; SN12C, read-out: LC50): > 100 µM
GI50 ([1]; SNB-19): 7.95 µM
CC50 ([1]; SNB-19, read-out: LC50): > 100 µM
GI50 ([1]; SNB-75): 1.84 µM
CC50 ([1]; SNB-75, read-out: LC50): > 100 µM
GI50 ([1]; SW-620): 8.4 µM
CC50 ([1]; SW-620, read-out: LC50): > 100 µM
GI50 ([1]; T47D): 10.3 µM
CC50 ([1]; T47D, read-out: LC50): > 100 µM
GI50 ([1]; TK-10): > 100 µM
CC50 ([1]; TK-10, read-out: LC50): > 100 µM
GI50 ([1]; U-251): 2.23 µM
CC50 ([1]; U-251, read-out: LC50): > 100 µM
GI50 ([1]; UACC-62): 2.43 µM
CC50 ([1]; UACC-62, read-out: LC50): > 100 µM
GI50 ([1]; UACC-257): 11.9 µM
CC50 ([1]; UACC-257, read-out: LC50): > 100 µM
GI50 ([1]; UO-31): 2.48 µM
CC50 ([1]; UO-31, read-out: LC50): > 100 µM
Growth Percent (NCI-H522 (NSCLC)): 41.21%
CC50 (RPMI-8226; Homo sapiens, RPMI-8226, read-out: LC50): > 100 µM
TGI (RPMI-8226; [2]): 2.50E−6
GI50 (glioblastoma (SF-295); Homo sapiens, SF-295): 0.413 µM
CC50 (glioblastoma (SF-295); Homo sapiens, SF-295, read-out: LC50): 8.2 µM
TGI (glioblastoma (SF-295); SF-295 (CNS Cancer), five dose): 2.03E−6

C[C@]12CCc3nc(Nc4ccc(O)cc4)sc3C1=CC[C@@H]1[C@@H]2CC[C@]2(C)C(=O)CC[C@@H]12 [IIa.35]
Growth Percent (NCI-H522 (NSCLC)): −55.25%
GI50 (RPMI-8226; [2]): 2.35 µM
TGI (RPMI-8226; [2]): 7.07E−6
CC50 (RPMI-8226; [3]): > 100 µM
GI50 (glioblastoma (SF-295); SF-295 (CNS Cancer), five dose): 5.26 µM
TGI (glioblastoma (SF-295); SF-295 (CNS Cancer), five dose): 3.59E−5
CC50 (glioblastoma (SF-295); [4]): > 100 µM

C[C@]12CCc3nc(N)sc3C1=CC[C@@H]1[C@@H]2CC[C@]2(C)C(=NNC(N)=O)CC[C@@H]12 [IVb.1]
Growth Percent (NCI-H522 (NSCLC)): −18.57%
GI50 (RPMI-8226; [2]): 0.3 µM
TGI (RPMI-8226; [2]): 1.37E−6
CC50 (RPMI-8226; [3]): > 100 µM
GI50 (glioblastoma (SF-295); SF-295 (CNS Cancer), five dose): 1.61 µM
TGI (glioblastoma (SF-295); SF-295 (CNS Cancer), five dose): 3.03E−6
CC50 (glioblastoma (SF-295); [4]): 5.71 µM

(1S,2R,13R,14S,18S)-7-(2,4-dimethylanilino)-2,18-dimethyl-6-thia-8-azapentacyclo[11.7.0.02,10.05,9.014,18]icosa-5(9),7,10-trien-17-one [IIa.14]
Growth Percent (NCI-H522 (NSCLC)): 24.64%
GI50 (RPMI-8226; [2]): 2.43 µM
TGI (RPMI-8226; [2]): 6.25E−6
50% growth inhibition (GI50) (RPMI-8226): submicromolar
CC50 (RPMI-8226; [3]): > 100 µM
GI50 (glioblastoma (SF-295); SF-295 (CNS Cancer), five dose): 1.81 µM
TGI (glioblastoma (SF-295); SF-295 (CNS Cancer), five dose): 4.10E−6

(1S,2R,13R,14S,18S)-7-(3-fluoroanilino)-2,18-dimethyl-6-thia-8-azapentacyclo[11.7.0.02,10.05,9.014,18]icosa-5(9),7,10-trien-17-one [IIa.8]
Growth Percent (NCI-H522 (NSCLC)): −43.73%
GI50 (RPMI-8226; [2]): 0.859 µM
TGI (RPMI-8226; [2]): 3.90E−6
50% growth inhibition (GI50) (RPMI-8226): submicromolar
CC50 (RPMI-8226; [3]): > 100 µM
GI50 (glioblastoma (SF-295); SF-295 (CNS Cancer), five dose): 1.19 µM
TGI (glioblastoma (SF-295); SF-295 (CNS Cancer), five dose): 2.97E−6
GI50 (glioblastoma (SF-295); glioblastoma SF-295): 1.19 µM
CC50 (glioblastoma (SF-295); [4]): 7.37 µM
